The test system of data set [1] is gastric mucosa lesions induced by absolute ethanol. Description: Gastroprotective activity, test with absolute ethanol (gastric mucosa erosions). Conditions: for Relative activity related to the inhibition of the free acid: ED50 of gastric acid inhibition (Shay) related to ED50 of inhibition of gastric erosion; for ED50: po; for gastroprotective activity (in words): test with absolute ethanol. In kind it is in vivo, rat. As for the experimental part: (§1) Rats of both sexes weighing 200 to 250 g, each previously starved for 24 hours, were used in this experiment. The lesions of gastric mucosa were induced by the oral administration of absolute ethanol in a dose of 1 ml/animal. After one hour following the administration, the animals were killed by an overdose of ether, the stomach was excised and the alterations of gastric mucosa were examined. The lengths of the erosions were measured and summarized (expressed in mm) for each stomach to obtain the erosion index by calculating the average value of the group. The inhibition was calculated in percentage by comparing the value of the group treated with ethanol to that of the control group treated only with the vehicle. Various doses of the compounds to be tested were administered, perorally, in a volume of 5 ml/kg using a pretreatment time of 60 minutes. Eight rats were used for each dose. /A. Robert, Gastroenterology 77, 761-767 (1979)/.
^x Relative activity = ED50 value of the gastric acid inhibition
related to the ED50 value of the inhibition of the gastric erosion.

A short description of another data set: in vivo. Conditions: mouse, po, NMRI mice, 7 days, "higher than" = highest dose administered without any death. As for the experimental part: The acute toxicity was determined on NMRI strain mice of both sexes weighing 20 to 25 g each by using 6 animals for each dose. The compounds to be tested were administered perorally in a volume of 20 ml/kg, the highest dose applied was 1000 mg/kg. After the administration the animals were kept under usual laboratory conditions for 7 days.
The data given as "higher than" a certain value mean the highest dose administered without noting any death of animals.

Data set [2] concerns gastric erosions induced by ethanol containing hydrochloric acid. The experiment in a line: Test with ethanol containing hydrochloric acid (gastric erosions). The class given is in vivo, rat. Conditions: for Inhibition of the erosion index, relative activity: ED50 of cetraxate divided by ED50 of compound tested; for ED50: po, rat, p.o., HCl/absolute ethanol 1 to 50; for Inhibition of the erosion frequency, relative activity: related to cetraxate. The protocol:
as §1
The principle of the method consists in that, simultaneously with the administration of absolute ethanol, hydrochloric acid is introduced to the stomach. Thus, the influence on systemic gastric acid inhibition action can be eliminated by the presence of the exogenous acid.
The reagent used in this test was a mixture of concentrated aqueous hydrochloric acid and absolute ethanol in a mass ratio of 1 to 50 in accordance with the dilution ratio used by Yamazaki et al., see Japan J. Pharmacol., 55, 415-424 (1991). Otherwise, the experiment was performed as described under test 2.1., however, in addition to the erosion index calculated from the lengths of the erosions in mm, the ratio of occurence of animals showing at least one gastric erosion within a test group, i.e. the erosion frequency, was also evaluated.

Another data set concerns Helicobacter pylori. The experiment in a line: Antibacterial effect on Helicobacter pylori (MIC, blood agar). The class given is cell-based. Conditions: Helicobacter pylori, 72 h. As for the experimental part: Helicobacter pylori strains used in these experiments were obtained from the biopsial samples of the stomachs of patients suffering from ulcerative diseases of the gastrointestinal system. From the pure culture of isolates a thick suspension was prepared with cysteine-inositol solution suitable for lyophilisation, and the suspension obtained was maintained in cold-resistant plastic ampoules in a deep-freezing chamber at a temperature of about -196 ° C. For the determination of the inhibitory effect of the compounds tested on Helicobacter pylori, blood agar containing 10 mg/liter of vancomycin and 25 mg/liter of amphotericin B was used /C. A. M. McNulty and I. C. Dent: Susceptibility of clinical isolates of Campylobacter pylori to twenty one antimicrobial agents. Book of Abstracts, 4th European Congress of Clinical Microbiology, Nice (1989)/.
The plates containing the strains were cultivated at 37° C. for 72 hours under a gaseous atmosphere containing 10 per cent of carbon dioxide and 5 per cent of oxygen /D. M. Jones et al., J. Clin. Pathol., 37, 1002 (1984)/.
The culture media were inoculated by diluting the broth culture of the strains grown overnight or with a suspension prepared from a culture obtained on a solid medium. About 10^5 of germs were applied to the surface of each plate.
A series of dilution were prepared from the compound to be-tested. The MIC (minimal inhibiting concentration) value of the compounds tested was considered to be the lowest concentration inhibiting the growth of the test organism completely.

Setting [3] is: rat, 60 min pretreatment, absolute ethanol 1 ml/animal, erosion index.
Setting [4] is: erosion frequency, read-out: Inhibition of the erosion frequency, ED50 p.o.
Setting [5] is: erosion index, read-out: Inhibition of the erosion index, ED50 p.o.

This note sets out measurements from patent US5597822A, “Pharmaceutical compositions for the prevention and/or treatment a gastrointestinal diseases” (Egis Pharmaceutical, priority 1993, dated 1997).

Converted amounts (≈) assume the structure as drawn. Like-named read-outs stand apart in the source and are kept apart here.

`CCCCNCC(O)CO/N=C1\CCCC\C1=C/c1ccc(Cl)c(Cl)c1` (racemic) [Compound A, (R,S)-2-(E)-(3,4-dichlorophenylmethylene)-1-(E)-[(3-butylamino-2-hydroxypropoxy)imino]cyclohexane]: the “Relative activity related to the inhibition of the free acid” value in data set [1] is 60.5. Besides, the ED50 (usually the dose that gives a 50% effect, or the effect in half of the subjects) in data set [1] (setting [3]) worked out at 2 mg/kg; in data set [2] (setting [4]) it was 18.8 mg/kg; in data set [2] (setting [5]) it was 7.1 mg/kg. In addition, in the data set “in vivo”, the 50% lethal dose (LD50) (as a rule, the dose expected to kill half of the subjects tested) at 168 h is more than 1000 mg/kg. In data set [2] (erosion index), the “Inhibition of the erosion index, relative activity” value stood at 3.1. In addition, in data set [2] (erosion frequency), the “Inhibition of the erosion frequency, relative activity” value is on record as 10.1.

Regarding `CCCN(CCC)CC(O)CO/N=C1\CCCC\C1=C/c1ccc(Cl)c(Cl)c1` (racemic) [Compound B, (R,S)-2-(E)-(3,4-dichlorophenylmethylene)-1-(E)-[(3-dipropylamino-2-hydroxypropoxy)imino]cyclohexane], in data set [1], the “Relative activity related to the inhibition of the free acid” value turned out to be 12.5. Also, the figures for the ED50 in data set [1] (setting [3]), in data set [2] (setting [4]) and in data set [2] (setting [5]) were 12.6 mg/kg, 20.1 mg/kg and 12.7 mg/kg, respectively. The same molecule gave a median lethal dose (LD50) at 168 h in the data set “in vivo” of more than 1000 mg/kg. In addition, the “Inhibition of the erosion index, relative activity” value in data set [2] (erosion index) is recorded as 1.7. Further, the “Inhibition of the erosion frequency, relative activity” value in data set [2] (erosion frequency) turned out to be 6.4.

`OC(CNC1CCCCC1)CO/N=C1\CCCC\C1=C/c1ccc(Cl)cc1` (racemic) [Compound E, (R,S)-2-(E)-(4-chlorophenylmethylene)-1-(E)-[(3-cyclohexylamino-2-hydroxypropoxy)imino]cyclohexane] had an LD50 at 168 h in “in vivo” of more than 1000 mg/kg. Also, the 50% effective dose (ED50) in data set [2] (setting [5]) was determined as 10.3 mg/kg. Moreover, the “Inhibition of the erosion frequency, relative activity” value in data set [2] (erosion frequency) is listed as 3-6.

In “in vivo”, `CCCCCCNCC(O)CO/N=C1\CCCC\C1=C/c1ccc(Cl)cc1` (racemic) [Compound F, (R,S)-2-(E)-(4-chlorophenylmethylene)-1-(E)-[(3-hexylamino-2-hydroxypropoxy)imino]-cyclohexane] showed an LD50 at 168 h of more than 1000 mg/kg. Besides, the median effective dose (ED50) in data set [2] (setting [5]) stood at 7.2 mg/kg.

In the case of `CN(C)CC(O)CO/N=C1\CCCC\C1=C/c1ccc(Cl)cc1` (racemic) [Compound G, (R,S)-2-(E)-(4-chlorophenylmethylene)-1-(E)-[(3-dimethylamino-2-hydroxypropoxy)imino]cyclohexane], the “Relative activity related to the inhibition of the free acid” value in data set [1] is listed as 60-125. Also, the 50% effective dose (ED50) in data set [2] (setting [5]) came to 15.8 mg/kg. Further, in data set [2] (erosion frequency), the “Inhibition of the erosion frequency, relative activity” value is on record as 3-6. Also, the minimal inhibitory concentration (MIC) (commonly the lowest concentration found to suppress growth) was 31.2 µg/mL (≈ 92.6 µM) with Helicobacter pylori (strain 867/90); 125 µg/mL (≈ 371 µM) with Helicobacter pylori (strain 1596); 62.5 µg/mL (≈ 186 µM) in the data set with Helicobacter pylori (strain 3842); 31.2 µg/mL (≈ 92.6 µM) against Helicobacter pylori (strain 6656); 125 µg/mL (≈ 371 µM) in the data set with Helicobacter pylori (strain 6709).

As to `COc1ccccc1/C=C1\CCCC\C1=N/OCC(O)CN1CCN(c2ccccc2OC)CC1` (racemic) [Compound H, (R,S)-2-(E)-(2-methoxyphenylmethylene)-1-(E)-{3-[4-(2-methoxyphenyl)-1-piperazinyl]-2-hydroxypropoxyimino}cyclohexane], in data set [1], the “Relative activity related to the inhibition of the free acid” value is “higher than 20.0”. For the same molecule, the 50% effective dose (ED50) in data set [1] (setting [3]) was 9.5 mg/kg; in data set [2] (setting [4]), more than 60 mg/kg; in data set [2] (setting [5]) it was 30 to 60 mg/kg. Moreover, the “Inhibition of the erosion index, relative activity” value in data set [2] (erosion index) is 0.4-0.7. For the same molecule, in data set [2] (erosion frequency), the “Inhibition of the erosion frequency, relative activity” value is recorded as less than 3.

On to `C=CCNCC(O)CO/N=C1\CCCC\C1=C/c1ccc(Cl)cc1` (racemic) [Compound I, (R,S)-2-(E)-(4-chlorophenylmethylene)-1-(E)-[(3-propenylamino-2-hydroxypropoxy)imino]cyclohexane], for which the “Relative activity related to the inhibition of the free acid” value in data set [1] is “higher than 10.0”. Besides, the ED50 in data set [1] (setting [3]) worked out at 8.4 mg/kg; in data set [2] (setting [4]), 39.2 mg/kg; in data set [2] (setting [5]), 8.6 mg/kg. Besides, the “Inhibition of the erosion index, relative activity” value in data set [2] (erosion index) amounted to 2.6. In addition, in data set [2] (erosion frequency), the “Inhibition of the erosion frequency, relative activity” value came to 4.8.

`CC(C)N(CC(O)CO/N=C1\CCCC\C1=C/c1ccc(Cl)cc1)C(C)C` (racemic) [Compound J, (R,S)-2-(E)-(4-chlorophenylmethylene)-1-(E)-[(3-diisopropylamino-2-hydroxypropoxy)imino]cyclohexane]: in data set [1], the “Relative activity related to the inhibition of the free acid” value was “about 25.0”. Further, the figures for the ED50 in data set [1] (setting [3]), in data set [2] (setting [4]) and in data set [2] (setting [5]) were 7 mg/kg, 19.1 mg/kg and 5.9 mg/kg, respectively. Also, in data set [2] (erosion index), the “Inhibition of the erosion index, relative activity” value stood at 3.7. In addition, in data set [2] (erosion frequency), the “Inhibition of the erosion frequency, relative activity” value is on record as 9.9.

On to `CC(C)NCC(O)CO/N=C1\CCCC\C1=C/c1ccc(Br)cc1` (racemic) [Compound K], for which, in data set [1], the “Relative activity related to the inhibition of the free acid” value is given as “about 17.9”. The figures for the median effective dose (ED50) in data set [1] (setting [3]), in data set [2] (setting [4]) and in data set [2] (setting [5]) were 6.7 mg/kg, 15 to 30 mg/kg and 11.4 mg/kg, respectively. Besides, the “Inhibition of the erosion index, relative activity” value in data set [2] (erosion index) was determined as 1.9. For the same molecule, the “Inhibition of the erosion frequency, relative activity” value in data set [2] (erosion frequency) was 6-12.

As to `CCCCNCC(O)CO/N=C1\CCCC\C1=C/c1ccc(Cl)cc1` (racemic) [Compound L, (R,S)-2-(E)-(4-chlorophenylmethylene)-1-(E)-[(3-butylamino-2-hydroxypropoxy)imino]cyclohexane], the “Relative activity related to the inhibition of the free acid” value in data set [1] was 18.3. Also, the ED50 in data set [1] (setting [3]) was 7.6 mg/kg; in data set [2] (setting [4]), 30 to 60 mg/kg; in data set [2] (setting [5]), 9.8 mg/kg. Further, in “in vivo”, the LD50 at 168 h was 1300 mg/kg. Further, in data set [2] (erosion index), the “Inhibition of the erosion index, relative activity” value is 2.2. In addition, in data set [2] (erosion frequency), the “Inhibition of the erosion frequency, relative activity” value is listed as 3-6.

As to `CN(C)CCCNCC(O)CO/N=C1\CCCC\C1=C/c1ccccc1` (racemic) [Compound M, (R,S)-2-(E)-(phenylmethylene)-1-(E)-{[3-(3-dimethylamino-1-propylamino)-2-hydroxypropoxy]imino}cyclohexane], the “Relative activity related to the inhibition of the free acid” value in data set [1] is reported as “about 6.7”. Also, the ED50 in data set [1] (setting [3]) was 29.9 mg/kg; in data set [2] (setting [4]), 30 to 60 mg/kg; in data set [2] (setting [5]), 17.5 mg/kg. In data set [2] (erosion index), the “Inhibition of the erosion index, relative activity” value was determined as 1.3. Besides, the “Inhibition of the erosion frequency, relative activity” value in data set [2] (erosion frequency) is on record as 3-6.

Take `CNC(=NC#N)NCCSCc1nc[nH]c1C` [cimetidine, 2-cyano-1-methyl-3-[2-[[(5-methyl-4-imidazolyl)-methyl]thio]ethyl]guanidine, reference compound]: in data set [1], the “gastroprotective activity (in words)” value was “low gastroprotective action in a rather high dose”.

As for `COc1ccc2nc([S+]([O-])Cc3ncc(C)c(OC)c3C)[nH]c2c1` (stereo not shown) [omeprazole, 5-methoxy-2-[[(4-methoxy-3,5-dimethyl-2-pyridyl)methyl]sulfinyl]benzimidazole, reference compound], the “gastroprotective activity (in words)” value in data set [1] is listed as “low gastroprotective action in a rather high dose”. This molecule displayed an LD50 at 168 h in the data set “in vivo” of more than 4000 mg/kg.

Turning to `CN1CCN(CC(=O)N2c3ccccc3C(=O)Nc3cccnc32)CC1` [pirenzepine, reference compound], the “gastroprotective activity (in words)” value in data set [1] is “low gastroprotective action in a rather high dose”.

Turning to “beta-D-fructofuranosyl alpha-D-glucopyranoside hydrogen sulfate basic aluminium salt [sucralfate, reference compound]”, in data set [1] (rat, p.o., 60 min pretreatment, absolute ethanol 1 ml/animal, erosion index), the “Gastroprotective activity: test with absolute ethanol, ED50 p.o.” value is on record as 69.0 mg/kg. Besides, the “gastroprotective activity (in words)” value in data set [1] is listed as “nearly identical activity”.
